The text below walks through data of US8642656B2, “Calixarene-based peptide conformation mimetics, methods of use, and methods of making” (priority 2004, dated 2014).

The subject of series [1] is MA148 human ovarian carcinoma. As to the kind of experiment: MA148 tumor growth model in athymic mice. The class given is in vivo. As to conditions: for tumor growth inhibition: MA148, end of 28 days; for MA148 tumor growth (in words): tumor-bearing mice. The protocol:
(§1) Female athymic nude mice (nu/nu, 5-6 weeks old) were used. These mice were purchased from the National Cancer Institute and allowed to acclimatize to local conditions for at least one week. Animals were given water and standard chow ad libitum, and were kept on a 12-hour light/dark cycle. All experiments were approved by the University of Minnesota Research Animal Resources ethical committee. Mice were randomized and split into three groups: 1) human serum albumin (10 mg/kg/day), 2) βpep-25 (10 mg/kg/day) and 3) peptide mimetic agent (5 mg or 10 mg/kg/day). Test compounds were diluted in DMSO and administered using osmotic mini-pumps (Durect, Cupertino, Calif.). Exponentially growing MA148 human ovarian carcinoma cells, kindly provided by Prof. Ramakrishnan (R. P. Dings et al., Cancer Res., 63, 382-385 (2003)) or B16 mouse melanoma cells were cultured in RPM1 1640 medium (Life Technologies, Grand Island, N.Y.). This medium was supplemented with 10% fetal bovine serum and 1% penicillin/streptomycin (Cellgro, Mediatech, Washington, D.C.) at 37° C and 5% CO2. One hundred microliters (100 μL) of this tumor cell suspension (2×10^7 cells/ml) was then injected subcutaneously into the right flank of each mouse. Pumps were implanted into the left flank of mice for subcutaneous administration of compound over a 28-day treatment span.
Two variants of this model were used: prevention and intervention. For the prevention variant, treatment was initiated at the time of inoculation with MA148 cells. For the intervention variant, tumors were allowed to grow to an average size of 50 mm^3 (usually day 7 post inoculation) before treatment was initiated. With either variant, animals were randomized prior to the initiation of treatment. Treatment was administered via osmotic mini-pumps (Durect, Cupertino, Calif.), which were implanted subcutaneously in the left flank of mice. Concentrated solutions of βpep-25 or DBF analogs were formulated such that the 28-day treatment period would be covered by implantation of a single pump. In each study, control groups of animals were administered either PBS or PBS containing human serum albumin.
Female athymic nude mice (nu/nu, 5-6 weeks old) or C57BL/6 male mice were purchased from the National Cancer Institute and allowed to acclimatize to local conditions for at least one week. Animals were provided water and standard chow ad libitum, and were kept on a 12 hour light/dark cycle. All experiments followed protocols approved by the University of Minnesota Research Animal Resources Ethical Committee. Exponentially growing MA148 human ovarian carcinoma cells, kindly provided by Prof. Ramakrishnan (Dings et al., Cancer Res 63, 382-385 (2003)), and B16F10 murine melanoma cells, kindly provided by Prof. Fidler, were cultured in RPM1 1640 medium (Life Technologies, Grand Island, N.Y.) (van der Schaft, et al., Faseb J 16, 1991-1993 (2002)). This medium was supplemented with 10% fetal bovine serum and 1% penicillin/streptomycin (Cellgro, Mediatech, Washington, D.C.) at 37° C. and 5% CO2. 100 μL of this tumor cell suspension (2×10^7 MA148 cells/ml and 2×10^6 B16F10 cells/ml) was then injected subcutaneously into the right hind flank of each mouse (athymic or C57BL/6, respectively).
Tumors were allowed to grow to an average size of at least 50 mm^3 before treatment was initiated, and animals were randomized prior to the initiation of treatment. Treatment was administered in one of two ways: s.c. from osmotic mini-pumps, and i.p. injection. Osmotic mini-pumps (Durect, Cupertino, Calif.) were implanted subcutaneously in the left flank of mice, and concentrated solutions of calixarene analogs or βpep-25 were formulated in PBS containing 30% (v/v) DMSO such that the 14-day or 28-day treatment period would be covered by implantation of a single pump. In each study, control groups of animals were administered either PBS (30% DMSO v/v) or PBS containing human serum albumin to control for protein content. […]

The test system of a further series is B16 melanoma. As to the kind of experiment: B16 melanoma tumor growth model in mice. The class given is in vivo. As to conditions: tumor-bearing mice. On the procedure: as §1, with “This medium was supplemented with 10% fetal bovine serum and 1% penicillin/streptomycin (Cellgro, Mediatech, Washington, D.C.) at 37° C and 5% CO2. One hundred microliters (100 μL) of this tumor cell suspension (2×10^7 cells/ml) was then injected subcutaneously into the right flank of each mouse. Pumps were implanted into the left flank of mice for subcutaneous administration of compound over a 28-day treatment span.” left out
Tumor volume was determined by measuring the diameters of tumors using calipers (Scienceware, Pequannock, N.J.) using the equation for the volume of a spheroid: (a^2×b×[…])/6, where ‘a’ is the width and ‘b’ the length or the tumor. […] Tumor weights correlated well with tumor volumes calculated in this way. Statistical differences in tumor growth curves were analyzed using the two-way ANOVA test.

Series [2] can be described thus: Toxicity assays in tumor-bearing mice: behavior, body weight, organ morphology. The class given is in vivo. As to conditions: for signs of toxicity (behavior, weight gain, hematocrit), in words: all in vivo tumor experiments. On the procedure: (§2) As an indirect measurement of general toxicity, body weights of mice were monitored twice weekly, using a digital balance (Ohaus Florham, N.J.). To determine hematocrit levels, blood samples were extracted by tail vein bleedings one day after terminating treatment, and blood was collected in heparinized micro-hematocrit capillary lubes (Fisher Pittsburgh, Pa.). Samples were spun down for 10 minutes in a micro-hematocrit centrifuge (Clay-Adams; NY), and the amount of hematocrit was determined using an international microcapillary reader (IEC; Needham, Mass.).

Series [3] is described as follows: Hematocrit levels, first (MA148) study. Type of series: in vivo, mice. As to conditions: last day of treatment, vehicle 47±5.7. The protocol: as §2
Series [4] is described as follows: Hematocrit levels, study with B16 tumors in immune competent mice. Type of series: in vivo. As to conditions: vehicle 51±1.4. On the procedure: as §2
The test system of series [5] is leukocytes in tumors of tumor bearing mice. As to the kind of experiment: Leukocyte infiltration into tumors, anti-CD45 and anti-CD8 staining. Type of series: in vivo. The following applies: compared with βpep-25; FIG. 4. On the procedure: as §1, with “One hundred microliters (100 μL) of this tumor cell suspension (2×10^7 cells/ml) was then injected subcutaneously into the right flank of each mouse. Pumps were implanted into the left flank of mice for subcutaneous administration of compound over a 28-day treatment span.” left out
Similar size tumors without apparent widespread necrosis were embedded in tissue freezing medium (Miles Inc.; Elkart, Ind.) and snap frozen in liquid nitrogen. […] The vessel density and architecture was quantified as described earlier [Griffioen et al., Biochemical Journal 354, 233-242 (2001)]. […]

Where [6] appears, read: 10 mg/kg/day s.c. osmotic mini-pump.

“Also recorded” adds a separate entry of the source.

As for “5,11,17,23-Tetra-tert-butyl-25,27-bis(2-guanidinoethoxy)-26,28-dihydroxy calix[4]arene trifluoroacetic acid salt [Compound 27]”, the tumor growth inhibition result in series [1] (2.7 mg/kg/day s.c. osmotic mini-pump) and in series [1] (setting [6]) was “about 65%” throughout. Also, the “MA148 tumor growth (in words)” value in series [1] (trifluoroacetic acid salt) was “inhibits MA148 tumor growth; also recorded: significantly inhibited”. Also, the “B16 tumor growth (in words)” value in the series with B16 melanoma is “significantly inhibited”. In series [2] (B16 model, i.p. administration), the “drop of body weights during treatment” value is “about 5%”. Further, the “signs of toxicity (behavior, weight gain, hematocrit), in words” value in series [2] is “did not generally show signs of toxicity”. Moreover, the “Hematocrit levels ±SD” value is reported as 46.5±0.7 percentage of red blood cells in series [3] (2.7 mg/kg), 47±4.2 percentage of red blood cells in series [3] (10 mg/kg) and 49±1.4 percentage red blood cells in series [4]. In addition, the “leukocyte infiltration into tumors (in words)” value in series [5] is listed as “clearly more effective at increasing leukocyte infiltration into tumors than βpep-25”.
As for `CN(C)CCNC(=O)COc1c2cccc1Cc1cccc(c1OCC(=O)NCCN(C)C)Cc1cccc(c1OCC(=O)NCCN(C)C)Cc1cccc(c1OCC(=O)NCCN(C)C)C2` [Compound 40], the tumor growth inhibition result in series [1] (2.4 mg/kg/day s.c. osmotic mini-pump) is given as “about 65%”; in series [1] (setting [6]), 81%. The “MA148 tumor growth (in words)” value in series [1] is listed as “inhibition of MA148 tumor growth”; in series [1] (listed as KM0118 (40)), “significantly inhibited”. For the same compound, in the series on B16 melanoma, the “B16 tumor growth (in words)” value is recorded as “significantly inhibited”. Also, the “signs of toxicity (behavior, weight gain, hematocrit), in words” value in series [2] is reported as “did not generally show signs of toxicity”. Moreover, the “Hematocrit levels ±SD” value is reported as 50±1.4 percentage of red blood cells in series [3] (2.4 mg/kg), 49.5±2.1 percentage of red blood cells in series [3] (10 mg/kg) and 53±0 percentage red blood cells in series [4]. In addition, the “leukocyte infiltration into tumors (in words)” value in series [5] was “clearly more effective at increasing leukocyte infiltration into tumors than βpep-25”.
